# Data as given in patent publication US20260053932A1, “COMPOUNDS AND METHODS FOR THE TARGETED DEGRADATION OF ANDROGEN RECEPTOR AND ASSOCIATED METHODS OF USE” (Arvinas Operations, Inc., priority 2020, published 2026).
# Test system: androgen receptor (AR) in LNCaP and/or VCaP cells
# Assay: Androgen Receptor ELISA assay (AR degradation)
# Assay type: cell-based
# Conditions: LNCaP and/or VCaP cells; 5 hours incubation; media with R1881; read-out: DC50 Code* (degradation of AR ELISA)
# Outline: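 VCaP cells grown ≥3 days, then treated 5 h with compound in media containing 1 nM R1881 (10× stock). Cells lysed and AR quantified by sandwich ELISA (mouse AR detection Ab, HRP anti-mouse, TMB). DC50 and Dmax derived from AR degradation.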
row,DC50 [nM],Compound
1,< 1,"CC(C)Oc1cc(O[C@H]2C[C@H](N(CC3CCN(c4cnc(C(=O)N[C@H]5CC[C@H](Oc6ccc(C#N)c(Cl)c6)CC5)cn4)CC3)C(C)C)C2)cc2c1C(=O)N(C1CCC(=O)NC1=O)C2=O (stereo partly shown) [Compound 44, N-((1r,4r)-4-(3-chloro-4-cyanophenoxy)cyclohexyl)-5-(4-((((1r,3r)-3-((2-(2,6-dioxopiperidin-3-yl)-7-isopropoxy-1,3-dioxoisoindolin-5-yl)oxy)cyclobutyl) (isopropyl)amino)methyl)piperidin-1-yl)pyrazine-2-carboxamide]"
2,< 1,"COc1cc(O[C@H]2CC[C@H](NC(=O)c3cnc(N4CCC(CN(C(C)C)[C@H]5C[C@H](Oc6cc(OC)c7c(c6)C(=O)N(C6CCC(=O)NC6=O)C7=O)C5)CC4)cn3)CC2)ccc1C#N (stereo partly shown) [Compound 38, N-((1r,4r)-4-(4-cyano-3-methoxyphenoxy)cyclohexyl)-5-(4-((((1r,3r)-3-((2-(2,6-dioxopiperidin-3-yl)-7-methoxy-1,3-dioxoisoindolin-5-yl)oxy)cyclobutyl) (isopropyl)amino)methyl)piperidin-1-yl)pyrazine-2-carboxamide]"

# Same assay, conditions: degradation of AR ELISA in LNCaP and/or VCaP cells; Table 2C; read-out: DC50 Code*
row,DC50 [nM],Compound
1,< 1,"Cc1cc(O[C@H]2C(C)(C)[C@H](NC(=O)c3ccc(N4CCC(CN(C)[C@H]5CC[C@H](Oc6ccc7c(c6)C(=O)N(C6CCC(=O)NC6=O)C7=O)C5)CC4)cc3)C2(C)C)cc(C)c1C#N (stereo partly drawn) [compound 154, N-((1r,3S)-3-(4-cyano-3,5-dimethylphenoxy)-2,2,4,4-tetramethylcyclobutyl)-4-(4-((((1S,3S)-3-((2-(2,6-dioxopiperidin-3-yl)-1,3-dioxoisoindolin-5-yl)oxy)cyclopentyl) (methyl)amino)methyl)piperidin-1-yl)benzamide]"
2,< 1,"Cc1cc(O[C@H]2C(C)(C)[C@H](NC(=O)c3ccc(N4CCC5(CC4)CN([C@H]4C[C@H](Oc6ccc7c(c6)C(=O)N(C6CCC(=O)NC6=O)C7=O)C4)CCO5)cc3)C2(C)C)cc(C)c1C#N (mixture of isomers) [compound 228, rac-N-((1r,3r)-3-(4-cyano-3,5-dimethylphenoxy)-2,2,4,4-tetramethylcyclobutyl)-4-(4-((1r,3r)-3-((2-(2,6-dioxopiperidin-3-yl)-1,3-dioxoisoindolin-5-yl)oxy)cyclobutyl)-1-oxa-4,9-diazaspiro[5.5]undecan-9-yl)benzamide]"
3,< 1,"[2H]C([2H])([2H])Oc1cc(O[C@H]2C[C@H](N(CC3CCN(c4cnc(C(=O)N[C@H]5C(C)(C)[C@H](Oc6ccc(C#N)c(OC)c6)C5(C)C)cn4)CC3)C(C)C)C2)cc2c1C(=O)N(C1CCC(=O)NC1=O)C2=O (mixture of isomers) [compound 203, rac-N-((1r,3r)-3-(4-cyano-3-methoxyphenoxy)-2,2,4,4-tetramethylcyclobutyl)-5-(4-((((1r,3r)-3-((2-(2,6-dioxopiperidin-3-yl)-7-(methoxy-d3)-1,3-dioxoisoindolin-5-yl)oxy)cyclobutyl) (isopropyl)amino)methyl)piperidin-1-yl)pyrazine-2-carboxamide]"
4,< 1,"COc1cc(O[C@H]2C[C@H](N(CC3CCN(c4cnc(C(=O)N[C@H]5C(C)(C)[C@H](Oc6ccc(C#N)c(Cl)c6)C5(C)C)cn4)CC3)C(C)C)C2)cc2c1C(=O)N(C1CCC(=O)NC1=O)C2=O (stereo partly shown) [compound 124, N-((1r,3r)-3-(3-chloro-4-cyanophenoxy)-2,2,4,4-tetramethylcyclobutyl)-5-(4-((((1r,3r)-3-((2-(2,6-dioxopiperidin-3-yl)-7-methoxy-1,3-dioxoisoindolin-5-yl)oxy)cyclobutyl) (isopropyl)amino)methyl)piperidin-1-yl)pyrazine-2-carboxamide]"
5,1 to 10,"Cc1cc(O[C@H]2C(C)(C)[C@H](NC(=O)c3cnc(N4CC(CCN5CCC(Oc6ccc7c(c6)C(=O)N(C6CCC(=O)NC6=O)C7=O)CC5)C4)nc3)C2(C)C)cc(C)c1C#N (stereo partly shown) [compound 133, N-((1r,3r)-3-(4-cyano-3,5-dimethylphenoxy)-2,2,4,4-tetramethylcyclobutyl)-2-(3-(2-(4-((2-(2,6-dioxopiperidin-3-yl)-1,3-dioxoisoindolin-5-yl)oxy)piperidin-1-yl)ethyl)azetidin-1-yl)pyrimidine-5-carboxamide]"
6,< 1,"Cc1cc(O[C@H]2C(C)(C)[C@H](NC(=O)c3cnc(N4CCC(CN(C(C)C)[C@H]5C[C@H](Oc6ccc7c(c6)C(=O)N(C6CCC(=O)NC6=O)C7)C5)CC4)cn3)C2(C)C)cc(C)c1C#N (mixture of isomers) [compound 212, rac-N-((1r,3r)-3-(4-cyano-3,5-dimethylphenoxy)-2,2,4,4-tetramethylcyclobutyl)-5-(4-((((1r,3r)-3-((2-(2,6-dioxopiperidin-3-yl)-3-oxoisoindolin-5-yl)oxy)cyclobutyl) (isopropyl)amino)methyl)piperidin-1-yl)pyrazine-2-carboxamide]"
7,1 to 10,"COc1cc(O[C@H]2C[C@H](N(CC(F)F)CC3CCN(c4ccc(C(=O)N[C@H]5C(C)(C)[C@H](Oc6ccc(C#N)c(Cl)c6)C5(C)C)cc4)CC3)C2)cc2c1C(=O)N(C1CCC(=O)NC1=O)C2=O (stereo partly shown) [compound 136, N-((1r,3r)-3-(3-chloro-4-cyanophenoxy)-2,2,4,4-tetramethylcyclobutyl)-4-(4-(((2,2-difluoroethyl)((1r,3r)-3-((2-(2,6-dioxopiperidin-3-yl)-7-methoxy-1,3-dioxoisoindolin-5-yl)oxy)cyclobutyl)amino)methyl)piperidin-1-yl)benzamide]"
8,< 1,"COc1cc(O[C@H]2C(C)(C)[C@H](NC(=O)c3cnc(N4CCC(CN(C(C)C)[C@H]5C[C@H](Oc6cc(OC)c7c(c6)C(=O)N(C6CCC(=O)NC6=O)C7=O)C5)CC4)cn3)C2(C)C)ccc1C#N (stereo partly shown) [compound 98, N-((1r,3r)-3-(4-cyano-3-methoxyphenoxy)-2,2,4,4-tetramethylcyclobutyl)-5-(4-((((1r,3r)-3-((2-(2,6-dioxopiperidin-3-yl)-7-methoxy-1,3-dioxoisoindolin-5-yl)oxy)cyclobutyl) (isopropyl)amino)methyl)piperidin-1-yl)pyrazine-2-carboxamide]"
9,< 1,"Cc1cc(O[C@H]2C(C)(C)[C@H](NC(=O)c3ccc(N4CCC(CN(C(C)C)[C@H]5C[C@H](Oc6ccc7c(c6)C(=O)N(C6CCC(=O)NC6=O)C7=O)C5)CC4)nn3)C2(C)C)cc(C)c1C#N (stereo partly shown) [compound 110, N-((1r,3r)-3-(4-cyano-3,5-dimethylphenoxy)-2,2,4,4-tetramethylcyclobutyl)-6-(4-((((1r,3r)-3-((2-(2,6-dioxopiperidin-3-yl)-1,3-dioxoisoindolin-5-yl)oxy)cyclobutyl) (isopropyl)amino)methyl)piperidin-1-yl)pyridazine-3-carboxamide]"
10,< 1,"COCCN(CC1CCN(c2ccc(C(=O)N[C@H]3C(C)(C)[C@H](Oc4ccc(C#N)c(Cl)c4)C3(C)C)cc2)CC1)[C@H]1C[C@H](Oc2cc(OC)c3c(c2)C(=O)N(C2CCC(=O)NC2=O)C3=O)C1 (stereo partly shown) [compound 105, N-((1r,3r)-3-(3-chloro-4-cyanophenoxy)-2,2,4,4-tetramethylcyclobutyl)-4-(4-((((1r,3r)-3-((2-(2,6-dioxopiperidin-3-yl)-7-methoxy-1,3-dioxoisoindolin-5-yl)oxy)cyclobutyl)(2-methoxyethyl)amino)methyl)piperidin-1-yl)benzamide]"
11,< 1,"Cc1cc(O[C@H]2C(C)(C)[C@H](NC(=O)c3c(C)nc(N4CCC(CN(C(C)C)[C@H]5C[C@H](Oc6ccc7c(c6)C(=O)N(C6CCC(=O)NC6=O)C7=O)C5)CC4)nc3C)C2(C)C)cc(C)c1C#N (mixture of isomers) [compound 200, rac-N-((1r,3r)-3-(4-cyano-3,5-dimethylphenoxy)-2,2,4,4-tetramethylcyclobutyl)-2-(4-((((1r,3r)-3-((2-(2,6-dioxopiperidin-3-yl)-1,3-dioxoisoindolin-5-yl)oxy)cyclobutyl) (isopropyl)amino)methyl)piperidin-1-yl)-4,6-dimethylpyrimidine-5-carboxamide]"
12,< 1,"COCCN(CC1CCN(c2ccc(C(=O)N[C@H]3C(C)(C)[C@H](Oc4ccc(C#N)c(Cl)c4)C3(C)C)nn2)CC1)[C@H]1C[C@H](Oc2ccc3c(c2)C(=O)N(C2CCC(=O)NC2=O)C3=O)C1 (stereo partly shown) [compound 127, N-((1r,3r)-3-(3-chloro-4-cyanophenoxy)-2,2,4,4-tetramethylcyclobutyl)-6-(4-((((1r,3r)-3-((2-(2,6-dioxopiperidin-3-yl)-1,3-dioxoisoindolin-5-yl)oxy)cyclobutyl)(2-methoxyethyl)amino)methyl)piperidin-1-yl)pyridazine-3-carboxamide]"
13,< 1,"Cc1cc(O[C@H]2C(C)(C)[C@H](NC(=O)c3cnc(N4CCC(CCN5CC(Oc6ccc7c(c6)C(=O)N(C6CCC(=O)NC6=O)C7=O)C5)CC4)cn3)C2(C)C)cc(C)c1C#N (stereo partly shown) [compound 115, N-((1r,3r)-3-(4-cyano-3,5-dimethylphenoxy)-2,2,4,4-tetramethylcyclobutyl)-5-(4-(2-(3-((2-(2,6-dioxopiperidin-3-yl)-1,3-dioxoisoindolin-5-yl)oxy)azetidin-1-yl)ethyl)piperidin-1-yl)pyrazine-2-carboxamide]"

# Same assay, conditions: degradation of AR ELISA in LNCaP and/or VCaP cells; read-out: DC50 Code*
row,DC50 [nM],Compound
1,1 to 10,"COCCN(CC1CCN(c2nc(C)c(C(=O)N[C@H]3C(C)(C)[C@H](Oc4ccc(C#N)c(OC)c4)C3(C)C)c(C)n2)CC1)[C@H]1C[C@H](Oc2ccc3c(c2)C(=O)N(C2CCC(=O)NC2=O)C3=O)C1 (mixture of isomers) [compound 240, rac-N-((1r,3r)-3-(4-cyano-3-methoxyphenoxy)-2,2,4,4-tetramethylcyclobutyl)-2-(4-((((1r,3r)-3-((2-(2,6-dioxopiperidin-3-yl)-1,3-dioxoisoindolin-5-yl)oxy)cyclobutyl)(2-methoxyethyl)amino)methyl)piperidin-1-yl)-4,6-dimethylpyrimidine-5-carboxamide]"
